Among the test systems are A549; IGROV-1; DLD-1; SK-OV-3; CAKI-1; UACC-257; DMS-114; SW-620; A498; NCI-H460; EKVX; MOLT-4; M14; COLO 205; CCRF-CEM; MCF7; MDA-MB-231; T47D; NCI/ADR-RES; PC-3.
Holding throughout (assay): DTP human tumour cell line panel, 48 h

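Assay format: 96-well plates, 48-hour exposure. GI50 is the concentration that inhibits growth by half.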 Calls of active or inactive are those of the source. No stated cut-off is given here; in the data, active = GI50 up to about 1.1 µM and inactive = higher. Bounds are passed on as bounds.

Regarding `CC1=CC2=C(C)C3(CC3)[C@@](C)(O)C(=O)C2=C1`, the 50% growth inhibitory concentration (GI50) in the assay with A549 is 0.314 µM (active); with IGROV-1 it was 0.29 µM (active); in the assay with DLD-1, 0.276 µM (active); in the assay on SK-OV-3, 0.293 µM (active); with CAKI-1, 0.269 µM (active); with UACC-257, 0.237 µM (active). Moreover, the GI50 is 0.139 µM (active) in the assay on DMS-114; > 1 µM (active) in the assay on SW-620; 0.241 µM (active) in the assay with A498; 0.0783 µM (active) with NCI-H460; 0.535 µM (active) with EKVX; > 1 µM (active) in the assay with MOLT-4. Besides, the GI50 in the assay with M14 was 0.171 µM (active); with COLO 205, 0.221 µM (active); in the assay with CCRF-CEM it was > 1 µM (active).

As for `CC(=O)OCC1OC(n2cc(F)c(=O)[nH]c2=O)C(OC(C)=O)C1OC(C)=O` (centres undefined), the GI50 is 1.71 µM (inactive) with MCF7; 16.7 µM (inactive) with A549; 52.4 µM (inactive) in the assay on IGROV-1; 15.4 µM (inactive) in the assay on DLD-1; > 73.5 µM (inactive) in the assay on SK-OV-3; 34.6 µM (inactive) with MDA-MB-231. For the same molecule, the GI50 in the assay with CAKI-1 is 25.9 µM (inactive); with UACC-257, 47.3 µM (inactive); in the assay on DMS-114, 39.8 µM (inactive); in the assay with SW-620 it was 9.86 µM (inactive); with A498, 61.2 µM (inactive); in the assay with T47D, 19.2 µM (inactive). The GI50 in the assay with NCI/ADR-RES was 37.4 µM (inactive); in the assay on NCI-H460, 5.37 µM (inactive); in the assay with EKVX, > 75.2 µM (inactive); in the assay on MOLT-4 it was 4.13 µM (inactive); in the assay on M14 it was 48.9 µM (inactive); in the assay on COLO 205 it was 12.2 µM (inactive). The GI50 with PC-3 was 73.8 µM (inactive); with CCRF-CEM, 6 µM (inactive).

For `COC1=C(N)C(=O)c2nc(C)ccc2C1=O`, the GI50 in the assay on A549 is 2.18 µM (inactive); in the assay on IGROV-1 it was 9.98 µM (inactive); with DLD-1, 2.31 µM (inactive); with SK-OV-3, 8.04 µM (inactive); in the assay on CAKI-1, 8.3 µM (inactive); in the assay on UACC-257, 1.47 µM (inactive). Besides, the GI50 with DMS-114 was 1.78 µM (inactive); in the assay with SW-620, 1.87 µM (inactive); with A498, 1.89 µM (inactive); in the assay on NCI-H460, 2.08 µM (inactive); in the assay on EKVX, 2.77 µM (inactive); with MOLT-4, 5.85 µM (inactive). Further, the GI50 in the assay with M14 is 1.88 µM (inactive); in the assay with COLO 205, 1.79 µM (inactive); in the assay with CCRF-CEM, 17.2 µM (inactive).

`Cn1c2c(c3ccccc31)CCN(CCCCN1CCN(c3ccccc3)CC1)C2=O`: the GI50 was 19.2 µM (inactive) in the assay on MCF7; 97.3 µM (inactive) in the assay with A549; > 76.6 µM (inactive) with IGROV-1; 19.3 µM (inactive) with DLD-1; > 100 µM (inactive) in the assay on SK-OV-3; > 10 µM (inactive) with MDA-MB-231. The GI50 is 56.4 µM (inactive) in the assay on CAKI-1; 5.86 µM (inactive) with UACC-257; 22.1 µM (inactive) in the assay on DMS-114; 22.8 µM (inactive) with SW-620; 45 µM (inactive) with A498; 3.86 µM (inactive) with T47D. Further, the GI50 in the assay on NCI-H460 is 28.6 µM (inactive); in the assay with EKVX it was > 38.5 µM (inactive); in the assay on MOLT-4 it was 7.38 µM (inactive); in the assay on M14, 4.58 µM (inactive); in the assay on COLO 205, 8.51 µM (inactive); with PC-3, 11.7 µM (inactive). Moreover, the GI50 with CCRF-CEM is 24.5 µM (inactive).

On to `CN(C)CCNC(=O)c1cccc2ccc(-c3ccc(Br)cc3)nc12`, for which the GI50 in the assay on MCF7 was 2.92 µM (inactive); in the assay on A549, 1.09 µM (active); in the assay on IGROV-1, 2.96 µM (inactive); in the assay on DLD-1 it was 2.59 µM (inactive); in the assay with SK-OV-3 it was 2.82 µM (inactive); in the assay on CAKI-1, 1.3 µM (inactive). Further, the GI50 was 2.8 µM (inactive) with UACC-257; 2.61 µM (inactive) in the assay with DMS-114; 1.17 µM (inactive) in the assay with SW-620; 1.99 µM (inactive) in the assay with A498; 1.8 µM (inactive) with NCI/ADR-RES; 0.767 µM (active) with NCI-H460. Also, the GI50 with EKVX was 2.61 µM (inactive); in the assay with MOLT-4, 0.333 µM (active); in the assay with COLO 205 it was 0.944 µM (active); in the assay with CCRF-CEM, 1.09 µM (active).

As for `O=C1OC2C(O)COC2(O)C1(O)Cc1c[nH]c2ccccc12.O=C1OC2C(O)COC2(OCc2c[nH]c3ccccc23)C1O` (centres undefined), the GI50 with A549, with IGROV-1, in the assay with DLD-1, in the assay with SK-OV-3, in the assay with CAKI-1 and with UACC-257 was > 100 µM (inactive) throughout. In addition, the GI50 with DMS-114, in the assay on SW-620, in the assay on A498, in the assay on NCI-H460, in the assay with EKVX and with MOLT-4 was > 100 µM (inactive) throughout. In addition, the GI50 with M14, in the assay with COLO 205 and in the assay on CCRF-CEM was > 100 µM (inactive) each time.

As to `O=C(O)COc1ccc(C(=O)/C(SS/C(C(=O)c2ccc(OCC(=O)O)c(Cl)c2Cl)=C2\C=C(c3ccccc3Cl)SS2)=C2/C=C(c3ccccc3Cl)SS2)c(Cl)c1Cl`, the GI50 is 46.8 µM (inactive) in the assay on A549; 21.3 µM (inactive) in the assay with IGROV-1; 25 µM (inactive) with DLD-1; 44.1 µM (inactive) in the assay on SK-OV-3; 39.4 µM (inactive) in the assay with CAKI-1; 48.8 µM (inactive) in the assay with UACC-257. Moreover, the GI50 is 9.73 µM (inactive) in the assay with DMS-114; 25.5 µM (inactive) with SW-620; 34.7 µM (inactive) in the assay with A498; 21.8 µM (inactive) with NCI-H460; 40.6 µM (inactive) in the assay on EKVX; 21.9 µM (inactive) in the assay with MOLT-4. Besides, the GI50 in the assay with M14 was 28.2 µM (inactive); in the assay with COLO 205, 17.6 µM (inactive); in the assay on CCRF-CEM, 13 µM (inactive).

As to `CC1=C2C=CC(=O)C[C@@]2(C)CCC1`, the GI50 in the assay on A549, in the assay with IGROV-1, in the assay with DLD-1, in the assay on SK-OV-3, with CAKI-1 and in the assay on UACC-257 was > 100 µM (inactive) each time. Also, the GI50 with DMS-114, in the assay with SW-620, in the assay with A498, with NCI-H460, with EKVX and in the assay with MOLT-4 was > 100 µM (inactive) each time. Besides, the GI50 in the assay with M14, in the assay with COLO 205 and in the assay on CCRF-CEM was > 100 µM (inactive) each time.

Consider `O=C(NO)C(=O)Nc1ccc(Cl)cc1[N+](=O)[O-]`, for which the GI50 in the assay on A549 is > 100 µM (inactive); with IGROV-1, > 100 µM (inactive); in the assay with DLD-1 it was > 100 µM (inactive); in the assay with SK-OV-3 it was > 100 µM (inactive); in the assay on CAKI-1, 66.5 µM (inactive); in the assay with UACC-257, > 100 µM (inactive). The GI50 in the assay with DMS-114 was > 100 µM (inactive); in the assay with SW-620 it was > 100 µM (inactive); with A498 it was > 100 µM (inactive); with NCI-H460, > 100 µM (inactive); in the assay on EKVX, 33.9 µM (inactive); in the assay on MOLT-4, > 100 µM (inactive). In addition, the GI50 with M14, with COLO 205 and in the assay with CCRF-CEM was > 100 µM (inactive) each time.

Take `O=C(O)COc1ccc(C(=O)/C(SS/C(C(=O)c2ccc(OCC(=O)O)c(Cl)c2Cl)=C2\C=C(c3ccc(Br)cc3)SS2)=C2/C=C(c3ccc(Br)cc3)SS2)c(Cl)c1Cl`: the GI50 is 0.0513 µM (active) in the assay with MCF7; 33.9 µM (inactive) in the assay with A549; 4.99 µM (inactive) with IGROV-1; 6.14 µM (inactive) with DLD-1; 21.3 µM (inactive) with SK-OV-3; 13.6 µM (inactive) in the assay with CAKI-1. Moreover, the GI50 is 25.3 µM (inactive) in the assay with UACC-257; 1.05 µM (active) with DMS-114; 6.73 µM (inactive) in the assay on SW-620; 18.2 µM (inactive) in the assay with A498; 2.3 µM (inactive) with T47D; 19.3 µM (inactive) in the assay with NCI-H460. Also, the GI50 is 28 µM (inactive) in the assay with EKVX; 3.44 µM (inactive) with MOLT-4; 11.1 µM (inactive) in the assay with M14; 3.11 µM (inactive) in the assay on COLO 205; 3.21 µM (inactive) with CCRF-CEM.

For the molecule `O=C(NCCCCCCCCNC(=O)c1cccc2ccccc12)c1cccc2ccccc12`, the GI50 is 71.4 µM (inactive) in the assay on MCF7; 34.2 µM (inactive) in the assay with A549; 20.4 µM (inactive) with IGROV-1; > 100 µM (inactive) with DLD-1; 10.7 µM (inactive) in the assay with SK-OV-3; 18.2 µM (inactive) in the assay with CAKI-1. Besides, the GI50 was > 93.1 µM (inactive) in the assay with UACC-257; 42.6 µM (inactive) with DMS-114; > 100 µM (inactive) in the assay with SW-620; 17.1 µM (inactive) in the assay on A498; 28.3 µM (inactive) with NCI/ADR-RES; 65.3 µM (inactive) in the assay with NCI-H460. In addition, the GI50 with EKVX was 19.5 µM (inactive); in the assay on MOLT-4 it was > 100 µM (inactive); in the assay on M14, 34.4 µM (inactive); with COLO 205, 55.1 µM (inactive); with PC-3, > 100 µM (inactive); in the assay on CCRF-CEM, > 100 µM (inactive).

As for `C=C[C@]1(C)CC(O)C2C(=C)C(=O)OC2[C@H]1C(=C)C=O` (some centres undefined), the GI50 was 1.09 µM (active) in the assay on MCF7; 18.4 µM (inactive) with A549; 8.87 µM (inactive) in the assay on IGROV-1; 2.08 µM (inactive) with DLD-1; 25.8 µM (inactive) with SK-OV-3; 3.1 µM (inactive) with MDA-MB-231. In addition, the GI50 in the assay on CAKI-1 was 4.35 µM (inactive); in the assay with UACC-257 it was 1.57 µM (inactive); in the assay on DMS-114, 5.73 µM (inactive); with SW-620 it was 1.44 µM (inactive); with A498 it was 4.42 µM (inactive); with T47D it was 3.15 µM (inactive). Further, the GI50 in the assay on NCI-H460 is 14.5 µM (inactive); in the assay with EKVX it was 15 µM (inactive); in the assay with MOLT-4 it was 2 µM (inactive); with M14 it was 2.08 µM (inactive); with COLO 205 it was 7.23 µM (inactive); with PC-3, 2.87 µM (inactive). For the same molecule, the GI50 in the assay on CCRF-CEM was 0.925 µM (active).

(Values after ChEMBL document CHEMBL1201862, “PubChem BioAssay data set” (2004).)
